The data set is described as follows: PK of CNP compounds after i.v. and s.c. administration to rats. The note with it: male, Sprague Dawley, in vivo, rat; for clearance: read-out: Cl (L/hr/kg), i.v. administration (converted); for bioavailability: s.c. bioavailability, read-out: F (%), s.c. administration. The method in brief: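 Male Sprague Dawley rats (n=4-6) were dosed at 300 nmol/kg s.c. or 100 nmol/kg i.v., formulated at pH 7.4 or 4.0, and sampled up to 72 h. Plasma levels were measured by TF-LC-MS against calibrators from 0.5 to 2000 nM. Non-compartmental PK used dose-normalized AUC for bioavailability, with values given as means.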

Where [1] appears, read: iv, i.v., about 100 nmol/kg, read-out: T½ (hr), i.v. administration (converted).
Where [2] appears, read: sc, s.c., about 300 nmol/kg, read-out: T½ (hr), s.c. administration (converted).

Structures are written as SMILES. Where two headings read alike, the source gives them in different places. Starred links: 1 amine or outer side, 2 acyl side, 3 side chain; linkers in the order of their positions; H or OH if unused. Positions of bridges follow the written chain, without caps; N, C: chain ends. Residues, ends and D or L forms follow the SMILES beside them. *: point of attachment. C18 diacid = O=C(O)CCCCCCCCCCCCCCCCC(=O)*; γGlu = O=C(O)[C@H](CCC(=O)[*:2])N[*:1]; AEEA = NCCOCCOCC(=O)O

Experimental findings from patent US20240209028A1, “CNP COMPOUNDS” (priority 2022, published 2024) are described below.

For the compound `CC[C@H](C)[C@@H]1NC(=O)[C@H](CCCNC(=N)N)NC(=O)[C@H](CC(=O)O)NC(=O)[C@H](CC(C)C)NC(=O)[C@@H]2CCCN2C(=O)[C@H](CC(C)C)NC(=O)CNC(=O)[C@H](Cc2ccccc2)NC(=O)[C@@H](NC(=O)CNC(=O)[C@H](CCC(N)=O)NC(=O)[C@H](CO)NC(=O)[C@H](CC(C)C)NC(=O)CNC(=O)[C@H](CCCCN)NC(=O)[C@H](CCCCN)NC(=O)[C@H](CCC(N)=O)NC(=O)[C@H](C)NC(=O)CNC(=O)[C@H](CCCCN)NC(=O)[C@H](Cc2ccc(O)cc2)NC(=O)[C@H](CCCCN)NC(=O)[C@H](CCCNC(=N)N)NC(=O)[C@H](C)NC(=O)COCCOCCNC(=O)COCCOCCNC(=O)COCCOCCNC(=O)COCCOCCNC(=O)CC[C@H](NC(=O)CC[C@H](NC(=O)CC[C@H](NC(=O)CC[C@H](NC(=O)CC[C@H](NC(=O)CCCCCCCCCCCCCCCCC(=O)O)C(=O)O)C(=O)O)C(=O)O)C(=O)O)C(=O)O)CSSC[C@@H](C(=O)O)NC(=O)CNC(=O)[C@H](CC(C)C)NC(=O)CNC(=O)[C@H](CO)NC(=O)[C@H](CC(C)C)NC(=O)[C@H](CO)NC(=O)CNC1=O` [compound 9407] ({C18 diacid-γGlu-γGlu-γGlu-γGlu-γGlu-AEEA-AEEA-AEEA-AEEA}-ARKYKGAQKKGLSQGCFGLPLDRIGSLSGLGC-OH; disulfide 16-32), where the note is “iv, i.v., about 100 nmol/kg”, the clearance was 0.00515 L/h/kg. In addition, the half-life runs as follows: under setting [1], 15.2 h; under setting [2], 14.9 h. For the same compound, the bioavailability (sc, about 300 nmol/kg) worked out at 37.2%.
Regarding `CC[C@H](C)[C@@H]1NC(=O)[C@H](CCCNC(=N)N)NC(=O)[C@H](CC(=O)O)NC(=O)[C@H](CC(C)C)NC(=O)[C@@H]2CCCN2C(=O)[C@H](CC(C)C)NC(=O)CNC(=O)[C@H](Cc2ccccc2)NC(=O)[C@@H](NC(=O)CNC(=O)[C@H](CO)NC(=O)[C@H](CO)NC(=O)[C@H](CC(C)C)NC(=O)CNC(=O)[C@H](CCCCN)NC(=O)[C@H](CCCCN)NC(=O)[C@H](CCC(N)=O)NC(=O)[C@H](C)NC(=O)CNC(=O)[C@H](CCCCN)NC(=O)[C@H](Cc2ccc(O)cc2)NC(=O)[C@H](CCCCN)NC(=O)[C@H](CCCNC(=N)N)NC(=O)[C@H](C)NC(=O)[C@H](CCC(N)=O)NC(=O)[C@@H]2CCCN2C(=O)[C@H](Cc2c[nH]cn2)NC(=O)[C@H](CCC(=O)O)NC(=O)[C@H](CCC(N)=O)NC(=O)CC[C@H](NC(=O)CC[C@H](NC(=O)CC[C@H](NC(=O)CC[C@H](NC(=O)CCCCCCCCCCCCCCCCC(=O)O)C(=O)O)C(=O)O)C(=O)O)C(=O)O)CSSC[C@@H](C(=O)O)NC(=O)CNC(=O)[C@H](CC(C)C)NC(=O)CNC(=O)[C@H](CO)NC(=O)[C@H](CC(C)C)NC(=O)[C@H](CO)NC(=O)CNC1=O` [compound 1389] ({C18 diacid-γGlu-γGlu-γGlu-γGlu}-QEHPQARKYKGAQKKGLSSGCFGLPLDRIGSLSGLGC-OH; disulfide 21-37), the clearance (iv, i.v., about 100 nmol/kg) is 0.00415 L/h/kg. For the same compound, the half-life under setting [1] was 14.6 h.
The matching figures for `CC[C@H](C)[C@@H]1NC(=O)[C@H](CCCNC(=N)N)NC(=O)[C@H](CC(=O)O)NC(=O)[C@H](CC(C)C)NC(=O)[C@@H]2CCCN2C(=O)[C@H](CC(C)C)NC(=O)CNC(=O)[C@H](Cc2ccccc2)NC(=O)[C@@H](NC(=O)CNC(=O)[C@H](CO)NC(=O)[C@H](CO)NC(=O)[C@@H](NC(=O)CNC(=O)[C@@H](NC(=O)[C@H](CCCCN)NC(=O)[C@H](CCC(N)=O)NC(=O)[C@H](C)NC(=O)CNC(=O)[C@H](Cc2c[nH]cn2)NC(=O)[C@H](Cc2ccc(O)cc2)NC(=O)[C@H](CCCCN)NC(=O)[C@H](CCCNC(=N)N)NC(=O)[C@H](C)NC(=O)COCCOCCNC(=O)COCCOCCNC(=O)CC[C@H](NC(=O)CC[C@H](NC(=O)CCCCCCCCCCCCCCCCC(=O)O)C(=O)O)C(=O)O)[C@@H](C)O)C(C)C)CSSC[C@@H](C(=O)O)NC(=O)CNC(=O)[C@H](CC(C)C)NC(=O)CNC(=O)[C@H](CO)NC(=O)[C@H](CC(C)C)NC(=O)[C@H](CO)NC(=O)CNC1=O` [compound 1354] ({C18 diacid-γGlu-γGlu-AEEA-AEEA}-ARKYHGAQKTGVSSGCFGLPLDRIGSLSGLGC-OH; disulfide 16-32): 0.00652 L/h/kg and 7.56 h.
The corresponding values for `CC[C@H](C)[C@@H]1NC(=O)[C@H](CCCNC(=N)N)NC(=O)[C@H](CC(=O)O)NC(=O)[C@H](CC(C)C)NC(=O)[C@@H]2CCCN2C(=O)[C@H](CC(C)C)NC(=O)CNC(=O)[C@H](Cc2ccccc2)NC(=O)[C@@H](NC(=O)CNC(=O)[C@H](CO)NC(=O)[C@H](CO)NC(=O)[C@H](CC(C)C)NC(=O)CNC(=O)[C@H](CCCCN)NC(=O)[C@H](CCCCN)NC(=O)[C@H](CCC(N)=O)NC(=O)[C@H](C)NC(=O)CNC(=O)[C@H](CCCCN)NC(=O)[C@H](Cc2ccc(O)cc2)NC(=O)[C@H](CCCCN)NC(=O)[C@H](CCCNC(=N)N)NC(=O)[C@H](C)NC(=O)CC[C@H](NC(=O)CC[C@H](NC(=O)CC[C@H](NC(=O)CC[C@H](NC(=O)CCCCCCCCCCCCCCCCC(=O)O)C(=O)O)C(=O)O)C(=O)O)C(=O)O)CSSC[C@@H](C(=O)O)NC(=O)CNC(=O)[C@H](CC(C)C)NC(=O)CNC(=O)[C@H](CO)NC(=O)[C@H](CC(C)C)NC(=O)[C@H](CO)NC(=O)CNC1=O` [compound 1386] ({C18 diacid-γGlu-γGlu-γGlu-γGlu}-ARKYKGAQKKGLSSGCFGLPLDRIGSLSGLGC-OH; disulfide 16-32) are 0.00605 L/h/kg and 8.16 h.
For `CC[C@H](C)[C@@H]1NC(=O)[C@H](CCCNC(=N)N)NC(=O)[C@H](CC(=O)O)NC(=O)[C@H](CC(C)C)NC(=O)[C@@H]2CCCN2C(=O)[C@H](CC(C)C)NC(=O)CNC(=O)[C@H](Cc2ccccc2)NC(=O)[C@@H](NC(=O)CNC(=O)[C@H](CCC(N)=O)NC(=O)[C@H](CO)NC(=O)[C@H](CO)NC(=O)CNC(=O)[C@H](CCCCN)NC(=O)[C@H](CCCCN)NC(=O)[C@H](CCC(N)=O)NC(=O)[C@H](C)NC(=O)CNC(=O)[C@@H]2CCCN2C(=O)[C@H](C)NC(=O)[C@H](CCC(N)=O)NC(=O)CNC(=O)COCCOCCNC(=O)COCCOCCNC(=O)CC[C@H](NC(=O)CCCCCCCCCCCCCCCCC(=O)O)C(=O)O)CSSC[C@@H](C(=O)O)NC(=O)CNC(=O)[C@H](CC(C)C)NC(=O)CNC(=O)[C@H](CO)NC(=O)[C@H](CC(C)C)NC(=O)[C@H](CO)NC(=O)CNC1=O` [compound 9384] ({C18 diacid-γGlu-AEEA-AEEA}-GQAPGAQKKGSSQGCFGLPLDRIGSLSGLGC-OH; disulfide 15-31; C-terminus assumed), for the setting “iv, i.v., about 100 nmol/kg”, the clearance was 0.00493 L/h/kg. Moreover, the half-life by setting is: under setting [1], 9.15 h; under setting [2], 9.47 h. Also, the bioavailability (sc, about 300 nmol/kg) turned out to be 49.7%.
The matching figures for `CC[C@H](C)[C@@H]1NC(=O)[C@H](CCCNC(=N)N)NC(=O)[C@H](CC(=O)O)NC(=O)[C@H](CC(C)C)NC(=O)[C@@H]2CCCN2C(=O)[C@H](CC(C)C)NC(=O)CNC(=O)[C@H](Cc2ccccc2)NC(=O)[C@@H](NC(=O)CNC(=O)[C@H](CO)NC(=O)[C@H](CO)NC(=O)[C@H](CC(C)C)NC(=O)CNC(=O)[C@H](CCCCN)NC(=O)[C@H](CCCCN)NC(=O)[C@H](CCC(N)=O)NC(=O)[C@H](C)NC(=O)CNC(=O)[C@H](CCCCN)NC(=O)[C@H](Cc2ccc(O)cc2)NC(=O)COCCOCCNC(=O)COCCOCCNC(=O)CC[C@H](NC(=O)CCCCCCCCCCCCCCCCC(=O)O)C(=O)O)CSSC[C@@H](C(=O)O)NC(=O)CNC(=O)[C@H](CC(C)C)NC(=O)CNC(=O)[C@H](CO)NC(=O)[C@H](CC(C)C)NC(=O)[C@H](CO)NC(=O)CNC1=O` [compound 1233] ({C18 diacid-γGlu-AEEA-AEEA}-YKGAQKKGLSSGCFGLPLDRIGSLSGLGC-OH; disulfide 13-29): 0.0246 L/h/kg, 1.42 h, 3.57 h and 33.8%.
Take `CC[C@H](C)[C@@H]1NC(=O)[C@H](CCCNC(=N)N)NC(=O)[C@H](CC(=O)O)NC(=O)[C@H](CC(C)C)NC(=O)[C@@H]2CCCN2C(=O)[C@H](CC(C)C)NC(=O)CNC(=O)[C@H](Cc2ccccc2)NC(=O)[C@@H](NC(=O)CNC(=O)[C@H](CO)NC(=O)[C@H](CO)NC(=O)[C@H](CC(C)C)NC(=O)CNC(=O)[C@H](CCCCN)NC(=O)[C@H](CCCCN)NC(=O)[C@H](CCC(N)=O)NC(=O)[C@H](C)NC(=O)CNC(=O)[C@H](CCC(=O)O)NC(=O)[C@H](Cc2ccc(O)cc2)NC(=O)COCCOCCNC(=O)COCCOCCNC(=O)COCCOCCNC(=O)COCCOCCNC(=O)CC[C@H](NC(=O)CCCCCCCCCCCCCCCCC(=O)O)C(=O)O)CSSC[C@@H](C(=O)O)NC(=O)CNC(=O)[C@H](CC(C)C)NC(=O)CNC(=O)[C@H](CO)NC(=O)[C@H](CC(C)C)NC(=O)[C@H](CO)NC(=O)CNC1=O` [compound 1392] ({C18 diacid-γGlu-AEEA-AEEA-AEEA-AEEA}-YEGAQKKGLSSGCFGLPLDRIGSLSGLGC-OH; disulfide 13-29): the clearance (iv, i.v., about 100 nmol/kg) is 0.00799 L/h/kg. Moreover, under setting [1], the half-life is 5.72 h.
The matching figures for `CC[C@H](C)[C@@H]1NC(=O)[C@H](CCCNC(=N)N)NC(=O)[C@H](CC(=O)O)NC(=O)[C@H](CC(C)C)NC(=O)[C@@H]2CCCN2C(=O)[C@H](CC(C)C)NC(=O)CNC(=O)[C@H](Cc2ccccc2)NC(=O)[C@@H](NC(=O)CNC(=O)[C@H](CCC(N)=O)NC(=O)[C@H](CO)NC(=O)CNC(=O)CNC(=O)[C@H](CCCCN)NC(=O)[C@H](CCCCN)NC(=O)[C@H](CCC(N)=O)NC(=O)[C@H](C)NC(=O)CNC(=O)[C@H](CCCCN)NC(=O)[C@H](Cc2ccc(O)cc2)NC(=O)COCCOCCNC(=O)COCCOCCNC(=O)COCCOCCNC(=O)COCCOCCNC(=O)CC[C@H](NC(=O)CC[C@H](NC(=O)CCCCCCCCCCCCCCCCC(=O)O)C(=O)O)C(=O)O)CSSC[C@@H](C(=O)O)NC(=O)CNC(=O)[C@H](CC(C)C)NC(=O)CNC(=O)[C@H](CO)NC(=O)[C@H](CC(C)C)NC(=O)[C@H](CO)NC(=O)CNC1=O` [compound 9435] ({C18 diacid-γGlu-γGlu-AEEA-AEEA-AEEA-AEEA}-YKGAQKKGGSQGCFGLPLDRIGSLSGLGC-OH; disulfide 13-29; C-terminus assumed): 0.00458 L/h/kg and 10.4 h.
